Measured values: ChEMBL document CHEMBL1125854, “Synthesis of substituted 5-amino-8-phenyl-3H,6H-1,4,5a,8a-tetraazaacenaphthalen-3-ones, a new class of agents for the improvement of cognition” (1991)
Where “and” joins values, the source holds several entries; their conditions need not be identical. Equal entries are not always repeated.

What was measured:
Type in all cases: functional
Mus musculus [1] = experiment: Tested for hypoxic survival test by 100 mg/kg intraperitoneal administration and percent survival of mice was reported.; details: ip
Mus musculus [2] = experiment: Attenuation of anoxic-induced amnesia in mice treated with 100 mg/kg compound administered intraperitoneally was determined; 153-209; details: route intraperitoneal
Mus musculus [3] = experiment: (§1) Attenuation of anoxic-induced amnesia in mice treated with 100 mg/kg compound administered intraperitoneally was determined; details: route intraperitoneal
Mus musculus [4] = experiment: Survival of mice after intraperitoneal administration of 50 mg/kg compound by using hypoxic survival test was determined; details: ip
Mus musculus [5] = experiment: as §1; details: route intraperitoneal; remark: listed apart in the source
Mus musculus [6] = experiment: Survival of mice after intraperitoneal administration of 100 mg/kg compound by using hypoxic survival test was determined; details: ip
Mus musculus [7] = experiment: Attenuation of anoxic-induced amnesia in mice treated with 10 mg/kg compound administered intraperitoneally was determined; details: route intraperitoneal
Mus musculus [8] = experiment: Attenuation of anoxic-induced amnesia in mice treated with 25 mg/kg compound administered intraperitoneally was determined; details: route intraperitoneal
Mus musculus [9] = experiment: Attenuation of anoxic-induced amnesia in mice treated with 0.1 mg/kg compound administered intraperitoneally was determined; details: route intraperitoneal
Mus musculus [10] = experiment: Tested for hypoxic survival test by 0.125 mg/kg intraperitoneal administration and percent survival of mice was reported; Value ranges from 60-80; details: ip

CCNc1nc(=O)c2cnn3c2n1CC=C3c1ccccc1
survival at 100 mg/kg (Mus musculus [1]): 73%

CC(C)Nc1nc(=O)c2cnn3c2n1CC=C3c1ccccc1
survival at 100 mg/kg (Mus musculus [1]): 20%

CC(C)CNc1nc(=O)c2cnn3c2n1CC=C3c1cccc(C(F)(F)F)c1
Improvement (Mus musculus [2]): 209%
Latency (Mus musculus [3]): 218 s
survival at 50 mg/kg (Mus musculus [4]): 50%
Latency (Mus musculus [5]): 51 s

CCCCNc1nc(=O)c2cnn3c2n1CC=C3c1cccc(C(F)(F)F)c1
survival at 100 mg/kg (Mus musculus [6]): 58%

CC(C)CNc1nc(=O)c2cnn3c2n1CC=C3c1ccccc1
survival at 100 mg/kg (Mus musculus [1]): 30%

CC(C)Nc1nc(=O)c2cnn3c2n1CC=C3c1cccc(C(F)(F)F)c1
survival at 100 mg/kg (Mus musculus [6]): 15%

CNc1nc(=O)c2cnn3c2n1CC=C3c1ccccc1
survival at 100 mg/kg (Mus musculus [1]): 95%

CCNc1nc(=O)c2cnn3c2n1CC=C3c1cccc(C(F)(F)F)c1
survival at 100 mg/kg (Mus musculus [6]): 65%

Nc1nc(=O)c2cnn3c2n1CC=C3c1cccc(C(F)(F)F)c1
survival at 100 mg/kg (Mus musculus [1]): 68%
Latency (Mus musculus [7]): 102 s
Improvement (Mus musculus [5]): 20%
Latency (Mus musculus [5]): 180 s

CCCCNc1nc(=O)c2cnn3c2n1CC=C3c1ccccc1
Improvement (Mus musculus [8]): 67%
Latency (Mus musculus [8]): 127 s and 132 s
survival at 100 mg/kg (Mus musculus [1]): 70%

CNC(=O)Oc1ccc2c(c1)[C@]1(C)CCN(C)[C@@H]1N2C [PHYSOSTIGMINE]
Improvement (Mus musculus [9]): 36%
survival at 0.125 mg/kg (Mus musculus [10]): 60%
